{"source": "patent US20200268720A1", "about": "“METHODS OF USE OF A CLASS IIA HDAC INHIBITOR” (GlaxoSmithKline LLC, priority 2016, published 2020)", "key": {"[1]": {"test_system": "myeloid cells (CD11b+) and T lymphocyte (CD3+) populations in the tumor", "assay": "Gene expression of FACS double-sorted tumor infiltrating leukocytes from MMTV-PyMT tumors", "assay_type": "in vivo, mouse", "description": "Tumor cells were isolated and processed as previously described. To enrich for CD45^+ immune cells, EPCAM^+ tumor cell depletion was carried out. Whole tumor cell suspension was incubated with biotinylated anti-EPCAM antibody (MACS Miltenyi cat. #130-101-859, clone caa7-9G8) for 10 minutes followed by incubation with Anti-Biotin Microbeads (MACS Miltenyi cat. #130-090-485) for 15 minutes at 4° C. in the dark. […] Following negative selection, EPCAM-depleted cells were stained for anti-mouse CD45 Alex FLOUR® 488 (BioLegend cat. #103121, clone 30-F11), anti-mouse CD3 BV421 (BioLegend cat. #100227, clone 17A2), anti-mouse CD11b APC (BioLegend cat. #101211, clone M1/70), and anti-mouse CD19 (BioLegend cat. #115507, clone 6D5). 7-AAD Viability Staining Solution (BioLegend cat. #420403) was applied to the cells 10 minutes prior to sorting on the BD FACSAria. CD45+/CD19-/7-AAD-/CD3+ cells and CD45+/CD19-/7-AAD-/CD11b+ cells were sorted into DMEM medium (Life Technologies cat. #11995-065) containing 2% FBS at 4° C. Cells were pelleted and immediately lysed in RNEASY® RLT buffer (RNEASY® Mini Plus Kit, Qiagen cat. #74134) containing 2-mercaptoethanol. RNA was isolated according to RNEASY® instructions in combination with RNase-Free DNase Set (Qiagen cat. #79254) standard protocol, and quality was verified with the Nanodrop™ Spectrophotometer. To obtain adequate amounts of RNA tumors from 5 mice were pooled together for each “sample”.\nAll procedures were performed at Boston University Microarray Resource Facility as described in the GENECHIP® Whole Transcript (WT) Plus Reagent Kit Manual (Affymetrix, Santa Clara, Calif.). Briefly, the total RNA was isolated using an RNEASY® kit (Qiagen), and the sample integrity was verified using RNA 6000 Pico Assay RNA chips run in Agilent 2100 Bioanalyzer (Agilent Technologies). The total RNA (200 ng) was reverse transcribed using GENECHIP® WT PLUS Reagent Kit (Affymetrix). The obtained cDNA was used as a template for in vitro transcription using GeneChip® WT Expression Kit (Life Technologies). The obtained antisense cRNA was purified using Nucleic Acid Binding Beads (GENECHIP® WT PLUS Reagent Kit, Affymetrix) and used as a template for reverse transcription to produce single-stranded DNA in the sense orientation. During this step, dUTP was incorporated. The DNA was then fragmented using uracil DNA glycosylase (UDG) and apurinic/apyrimidinic endonuclease 1 (APE 1) and labeled with DNA labeling reagent covalently linked to biotin using terminal deoxynucleotidyl transferase (TdT, GENECHIP® WT PLUS Reagent Kit, Affymetrix). IVT and cDNA fragmentation quality controls were carried out by running an mRNA Pico assay in the Agilent 2100 Bioanalyzer. […]"}, "tumor macrophages": {"test_system": "tumor macrophages", "assay": "New vs. pre-existing macrophage dextran experiment", "assay_type": "in vivo, mouse", "details": "5 days of TMP195 vs vehicle", "description": "MMTV-PyMT tumor-bearing mice were injected with 0.25 mg/mouse (10 mpk) low molecular weight (10,000 MW) Alexa555-labelled dextran (Life Technologies D34679) which is readily taken up by phagocytic cells. Mice were then treated for 5 consecutive days with DMSO or TMP195. Two hours before the mice were sacrificed they were injected with 0.25 mg/mouse of another low molecular weight (10,000 MW) dextran, this time labeled with Alexa594 (Life Technologies D22913)14. Tumors were collected as described above and flow cytometry was performed. […] Mice that received only one of the dextran conjugates were used as controls for flow cytometry."}, "Human monocytes": {"test_system": "Human monocytes", "assay": "In vitro antigen presenting cell (APC) and T cell proliferation experiments", "assay_type": "cell-based", "description": "Blood was collected from healthy donors according to the guidelines of the American Association of Blood Banks and under an IRB-approved informed consent form was purchased from Research Blood Components (Boston, Mass.). Human monocytes were isolated from buffy coat preparations via positive selection as per the manufacturer's instructions (StemCell Technologies, Catalog #18058). Monocytes were differentiated into antigen presenting cells in RPMI Medium 1640 supplemented with GLUTAMAX™ (GIBCO), fetal bovine serum (10% v/v), IL-4 (10 ng/ml), GM-CSF (50 ng/ml), penicillin (100 U/ml), and streptomycin (100 ug/ml) for 5 days in the presence of either 0.1% (v/v) DMSO or 300 nM TMP195. Cells were collected by washing and incubation with a solution of 5 mM EDTA in PBS (Ca2^+ and Mg2^+-free), prior to flow cytometric analysis of CD80 (Biolegend #305208) and CD86 (Biolegend #305418). Alternatively, harvested APCs were counted and co-cultured in culture medium (no DMSO or inhibitor present) with heterologous CD4^+ T cells (isolated from buffy coats via negative selection following manufacturer's instructions, StemCell Technologies, Catalog #15062) that had been labeled with CELLTRACE™ CFSE (ThermoFisher catalog #C34554) at a 10:1 T cell:APC ratio. T cell proliferation was stimulated by the addition of 200 pg/ml anti-CD3 (Biolegend Catalog #317326), and proliferation was quantified after 72 hours of co-culture by the dilution of CFSE using FlowJo software (version 9.4, Treestar, Inc.)."}, "whole MMTV-PyMT tumors": {"test_system": "whole MMTV-PyMT tumors", "assay": "Gene expression in RNA isolated from whole tumors after two weeks of treatment", "assay_type": "in vivo, mouse", "details": "two weeks TMP195 vs vehicle, n=3 mice per group", "procedure": "All procedures were performed at Boston University Microarray Resource Facility as described in the […] ® Whole Transcript (WT) Plus Reagent Kit Manual (Affymetrix, Santa Clara, Calif.). Briefly, the total RNA was isolated using an RNEASY® kit (Qiagen), and the sample integrity was verified using RNA 6000 Pico Assay RNA chips run in Agilent 2100 Bioanalyzer (Agilent Technologies). […] The obtained cDNA was used as a template for in vitro transcription using GeneChip® WT Expression Kit (Life Technologies). […] During this step, dUTP was incorporated. […] IVT and cDNA fragmentation quality controls were carried out by running an mRNA Pico assay in the Agilent 2100 Bioanalyzer. The labeled fragmented DNA was hybridized to the Gene Arrays 1.0ST for 16-18 h in […] ® Hybridization oven 640 at 45° C. with rotation (60 r.p.m.). The hybridized samples were washed and stained using Affymetrix fluidics station 450 as per manufacturer's instruction (Hybridization, Washing and Staining kit, Affymetrix). Microarrays were immediately scanned using Affymetrix GeneArray Scanner 3000 7G Plus (Affymetrix)."}, "MMTV-PyMT tumors": {"test_system": "MMTV-PyMT tumors", "assay": "Combination with chemotherapy (Carboplatin, Paclitaxel) in MMTV-PyMT mice", "assay_type": "in vivo, mouse"}, "[2]": {"details": "TMP195 daily for 5 days vs DMSO"}, "[3]": {"details": "IL-4 and GM-CSF, 5 days, 300 nM TMP195 vs 0.1% DMSO"}, "[4]": {"details": "TMP195 50 mg/kg IP daily plus PTX 10 mg/kg IV"}}, "data": [{"compound": "CC(C)(CNC(=O)c1cccc(-c2noc(C(F)(F)F)n2)c1)c1coc(-c2ccccc2)n1", "note": "[TMP195, N-(2-methyl-2-(2-phenyloxazol-4-yl)propyl)-3-(5-(trifluoromethyl)-1,2,4-oxadiazol-3-yl)benzamide]", "values": [{"measurement": "number of differentially expressed probes (δ-factor >1.5) in CD3+ cells", "setting": "[1]; [2]", "result": 3, "unit": "probes"}, {"measurement": "number of differentially expressed probes (δ-factor >1.5) in CD11b+ cells", "setting": "[1]; [2]", "result": 26, "unit": "probes"}, {"measurement": "increase in gene expression in CD11b+ myeloid cells", "setting": "[1]; TMP195 daily for 5 days vs DMSO, probes with δ-factor >1.5", "result": "up to 4.8 fold"}, {"measurement": "IFNγ response gene signature in tumor-resident CD11b+ cells", "setting": "[1]; TMP195 treatment", "result": "induced an IFNγ response gene signature"}, {"measurement": "number of new macrophages in the tumor", "setting": "tumor macrophages", "result": "increases"}, {"measurement": "number of pre-existing macrophages in the tumor", "setting": "tumor macrophages", "result": "not and without affecting"}, {"measurement": "T cell co-stimulatory function of monocytes differentiated to antigen presenting cells", "setting": "Human monocytes; [3]", "result": "promoted T cell co-stimulatory function"}, {"measurement": "proportion of cells expressing the co-stimulatory molecule CD86", "setting": "Human monocytes; [3]", "result": "increase"}, {"measurement": "proliferation (Division Index) of CFSE-labeled naive CD4+ T cells co-cultured with differentiated monocytes", "setting": "Human monocytes; monocytes differentiated in 300 nM TMP195 vs DMSO, 10:1 T cell:APC", "result": "higher degree of proliferation"}, {"measurement": "differential gene expression in whole tumor RNA", "setting": "whole MMTV-PyMT tumors", "result": "overall lack of differential gene expression"}, {"measurement": "tumor burden, combination with Carboplatin", "setting": "MMTV-PyMT tumors; TMP195 50 mg/kg IP daily plus Carboplatin 50 mg/kg IV every 5 days", "result": "significant reduction in tumor burden compared to either monotherapy"}, {"measurement": "durability of efficacy, combination of TMP195 and PTX", "setting": "MMTV-PyMT tumors; [4]", "result": "at least 29 days"}, {"measurement": "durability, combination of TMP195 plus PTX (figure legend)", "setting": "MMTV-PyMT tumors; [4]", "result": "durable for at least one month"}, {"measurement": "tumor burden, combination with Paclitaxel", "setting": "MMTV-PyMT tumors; TMP195 50 mg/kg IP daily plus Paclitaxel 10 mg/kg IV every 5 days", "result": "significant reduction in tumor burden compared to either monotherapy"}]}]}
